In US20090252674A1, “Tripodal Ligands with the Coordinating Motifs K2 -BH2 or K3 -BH3 Relevant for Biomedical Applications of Organometallic Complexes” (Mallinckrodt Inc., priority 2005, published 2009):

Experiment: HPLC analysis of the 6a preparation at different intervals of time (stability under physiologic conditions)
Assay type: physicochemical
Settings: PBS, pH 7.4
Description: In a nitrogen-purged glass vial, 100 μL of a 2.5×10^−2 M aqueous solution of ligand 1 were added to 400 μL (7.5 mCi) of the organometallic precursor fac−[^99mTc(OH2)3(CO)3]^+, and the mixture was incubated at room temperature for 30 min. After this time, complex 6a has been obtained in 90% yield, as checked by gradient HPLC analysis (from 100% aqueous 0.1% CF3COOH solution to 100% CH3CN) using a Nucleosil column (10:m, 250 mm×4 mm). The chemical identity of 6a was confirmed by comparing its HPLC chromatogram with the HPLC profile of the analogue Re complex (6) (Retention time: Re, 25.78 min; ^99mTc, 26.28 min). HPLC analysis of the preparation of 6a, at different intervals of time, has shown that 6a is stable under physiologic conditions (PBS, pH 7.4), at least for a period of 24 h.

[^99mTc (κ^3-H3B(Tim^Me))(CO)3] [complex 6a]
stable under physiologic conditions, period: ≥ 24 h
